Measurements reported in ChEMBL document CHEMBL1201862, “PubChem BioAssay data set” (2004).
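48-hour exposure; five concentrations; linearly interpolated endpoints. GI50 is the concentration that inhibits growth by half.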 Active and inactive are the calls of the source. Cut-off read from the data, not from the text of the source: active = GI50 up to about 1.1 µM and inactive = higher.

How the values were obtained:
Assay in all cases: growth of human tumour cells (NCI), 48 h
[1] = system: Hs-578T
[2] = system: MDA-N
[3] = system: ACHN
[4] = system: SNB-19
[5] = system: OVCAR-4
[6] = system: NCI/ADR-RES
[7] = system: HOP-62
[8] = system: RPMI-8226
[9] = system: SK-OV-3
[10] = system: Malme-3M
[11] = system: SF-268
[12] = system: HL-60
[13] = system: EKVX
[14] = system: UO-31
[15] = system: HCT-15
[16] = system: OVCAR-8
[17] = system: MOLT-4
[18] = system: MCF7
[19] = system: SW-620
[20] = system: HCC 2998

| SMILES | GI50 [1] | GI50 [2] | GI50 [3] | GI50 [4] | GI50 [5] | GI50 [6] | GI50 [7] | GI50 [8] | GI50 [9] | GI50 [10] | GI50 [11] | GI50 [12] | GI50 [13] | GI50 [14] | GI50 [15] [µM] | GI50 [16] | GI50 [17] | GI50 [18] | GI50 [19] | GI50 [20] |
| --- | --- | --- | --- | --- | --- | --- | --- | --- | --- | --- | --- | --- | --- | --- | --- | --- | --- | --- | --- | --- |
| S=C1CC(c2ccccc2)Sc2cc(Cl)ccc2N1 (centres undefined) | 8.91 µM (inactive) | 0.661 µM (active) | 9.46 µM (inactive) | 10.8 µM (inactive) | 13.2 µM (inactive) | 3.52 µM (inactive) | 5.61 µM (inactive) | 43.5 µM (inactive) | 7.35 µM (inactive) | 6.28 µM (inactive) | 6.84 µM (inactive) | 0.726 µM (active) | 20.7 µM (inactive) | 44.5 µM (inactive) | 1.32 | 13.2 µM (inactive) | 1.51 µM (inactive) | 4.34 µM (inactive) |  |  |
| CC(C)(C)c1cc(/C=C(\C#N)C(=O)NCCO)cc(C(C)(C)C)c1O | 37.8 µM (inactive) | 18.7 µM (inactive) | 27.2 µM (inactive) | 32.1 µM (inactive) | 17.8 µM (inactive) | 23 µM (inactive) | 21.2 µM (inactive) | 12.3 µM (inactive) | 20.7 µM (inactive) | 17.3 µM (inactive) | 31.9 µM (inactive) | 15.7 µM (inactive) | 24.5 µM (inactive) | 19.9 µM (inactive) | 20.7 | 38.6 µM (inactive) | 18.7 µM (inactive) | 26.5 µM (inactive) | 28.8 µM (inactive) |  |
| C[C@@]12C[C@@H](c3ccccc3O1)N1Cc3ccccc3CSC1=N2 | > 100 µM (inactive) | 93.5 µM (inactive) | > 100 µM (inactive) | > 100 µM (inactive) | 66.1 µM (inactive) | > 100 µM (inactive) | > 100 µM (inactive) | > 100 µM (inactive) | > 100 µM (inactive) | 79.8 µM (inactive) | > 100 µM (inactive) |  | > 100 µM (inactive) | > 100 µM (inactive) | 37.3 | > 100 µM (inactive) | 56.6 µM (inactive) | 50.4 µM (inactive) | > 100 µM (inactive) | 33.3 µM (inactive) |
| CCS(=O)(=O)CCn1cnc2c1c(=O)n(C)c(=O)n2C | > 100 µM (inactive) | > 100 µM (inactive) | > 100 µM (inactive) | > 100 µM (inactive) | > 100 µM (inactive) | > 100 µM (inactive) | > 100 µM (inactive) |  |  |  | > 100 µM (inactive) | > 100 µM (inactive) | > 100 µM (inactive) | > 100 µM (inactive) | > 100 | > 100 µM (inactive) | > 100 µM (inactive) | > 100 µM (inactive) | > 100 µM (inactive) | > 100 µM (inactive) |
| CC(CC(=O)O)C(C(=O)O)C(=O)O (centres undefined) | > 100 µM (inactive) | > 100 µM (inactive) | > 100 µM (inactive) | > 100 µM (inactive) | > 100 µM (inactive) | > 100 µM (inactive) | > 100 µM (inactive) | > 100 µM (inactive) | > 100 µM (inactive) | > 100 µM (inactive) | > 100 µM (inactive) | > 100 µM (inactive) | > 100 µM (inactive) | > 100 µM (inactive) | > 100 | > 100 µM (inactive) | > 100 µM (inactive) | > 100 µM (inactive) | > 100 µM (inactive) |  |
| CC(C)(C)OC(=O)N(O)[C@@H]1C=C[C@H](n2cnc3c(N)ncnc32)C1 | 92.3 µM (inactive) | > 100 µM (inactive) | > 100 µM (inactive) | > 100 µM (inactive) | > 100 µM (inactive) | > 100 µM (inactive) | 43 µM (inactive) | > 100 µM (inactive) | > 100 µM (inactive) | > 100 µM (inactive) | > 100 µM (inactive) |  | > 100 µM (inactive) | > 100 µM (inactive) | > 100 | > 100 µM (inactive) | > 100 µM (inactive) | > 100 µM (inactive) | > 100 µM (inactive) | > 100 µM (inactive) |
| O=C(O)c1cc2ccccc2c(Cc2c(O)c(C(=O)O)cc3ccccc23)c1O [PAMOIC ACID] | > 100 µM (inactive) | > 100 µM (inactive) | > 100 µM (inactive) | > 100 µM (inactive) | > 100 µM (inactive) | > 100 µM (inactive) | > 100 µM (inactive) | > 100 µM (inactive) |  | > 100 µM (inactive) | > 100 µM (inactive) | > 100 µM (inactive) | > 100 µM (inactive) | > 100 µM (inactive) | > 100 | > 100 µM (inactive) | > 100 µM (inactive) |  | > 100 µM (inactive) | > 100 µM (inactive) |
